Laboratory results from patent US9663519B2, “Compounds useful as inhibitors of ATR kinase” (Vertex Pharmaceuticals Incorporated, priority 2013, dated 2017).

How the values were obtained:
full-length ATR = full-length ATR (Homo sapiens (Human), UniProt Q13535); assay: ATR Inhibition Assay (radioactive-phosphate incorporation); format: biochemical; conditions: Ki(app); 5 nM full-length ATR, 10 μM ATP, 25° C.
Method: Compounds were screened for their ability to inhibit ATR kinase using a radioactive-phosphate incorporation assay. Assays were carried out in a mixture of 50 mM Tris/HCl (pH 7.5), 10 mM MgCl2 and 1 mM DTT. Final substrate concentrations were 10 μM [γ-33P]ATP (3 mCi 33P ATP/mmol ATP, Perkin Elmer) and 800 μM target peptide (ASELPASQPQPFSAKKK (SEQ. ID NO: 1)).
Assays were carried out at 25° C. in the presence of 5 nM full-length ATR. An assay stock buffer solution was prepared containing all of the reagents listed above, with the exception of ATP and the test compound of interest. 13.5 μL of the stock solution was placed in a 96 well plate followed by addition of 2 μL of DMSO stock containing serial dilutions of the test compound (typically starting from a final concentration of 15 μM with 3-fold serial dilutions) in duplicate (final DMSO concentration 7%). The plate was pre-incubated for 10 minutes at 25° C. and the reaction initiated by addition of 15 μL [γ-33P]ATP (final concentration 10 μM).
The reaction was stopped after […] by the addition of 30 μL 0.1M phosphoric acid containing 2 mM ATP. A multiscreen phosphocellulose filter 96-well plate (Millipore, Cat no. MAPHN0B50) was pretreated with 100 μL 0.2M phosphoric acid prior to the addition of 45 μL of the stopped assay mixture. The plate was washed with 5×200 μL 0.2M phosphoric acid. After drying, 100 μL Optiphase ‘SuperMix’ liquid scintillation cocktail (Perkin Elmer) was added to the well prior to scintillation counting (1450 Microbeta Liquid Scintillation Counter, Wallac).
After removing mean background values for all of the data points, Ki(app) data were calculated from non-linear regression analysis of the initial rate data using the Prism software package (GraphPad Prism version 3.0cx for Macintosh, GraphPad Software, San Diego Calif., USA).

[1] = test system: HCT116 colorectal cancer cells; assay: Cisplatin Sensitization Assay (96 h cell viability MTS); format: cell-based; conditions: Cisplatin sensitization value: concentration of compound required to reduce the IC50 of Cisplatin alone by at least 3-fold; HCT116, 96 h MTS
Method: Compounds can be screened for their ability to sensitize HCT116 colorectal cancer cells to Cisplatin using a 96 h cell viability (MTS) assay. […] Compounds and Cisplatin are then both added simultaneously to the cell media in 2-fold serial dilutions from a top final concentration of 10 μM as a full matrix of concentrations in a final cell volume of 200 μl, and the cells are then incubated at 37° C. in 5% CO2. After 96 h, 40 μl of MTS reagent (Promega G358a) is added to each well and the cells are incubated for 1 h at 37° C. in 5% CO2. Finally, absorbance is measured at 490 nm using a SpectraMax Plus 384 reader (Molecular Devices) and the concentration of compound required to reduce the IC50 of Cisplatin alone by at least 3-fold (to 1 decimal place) can be reported.

Sequence of full-length ATR (Q13535 whole entry): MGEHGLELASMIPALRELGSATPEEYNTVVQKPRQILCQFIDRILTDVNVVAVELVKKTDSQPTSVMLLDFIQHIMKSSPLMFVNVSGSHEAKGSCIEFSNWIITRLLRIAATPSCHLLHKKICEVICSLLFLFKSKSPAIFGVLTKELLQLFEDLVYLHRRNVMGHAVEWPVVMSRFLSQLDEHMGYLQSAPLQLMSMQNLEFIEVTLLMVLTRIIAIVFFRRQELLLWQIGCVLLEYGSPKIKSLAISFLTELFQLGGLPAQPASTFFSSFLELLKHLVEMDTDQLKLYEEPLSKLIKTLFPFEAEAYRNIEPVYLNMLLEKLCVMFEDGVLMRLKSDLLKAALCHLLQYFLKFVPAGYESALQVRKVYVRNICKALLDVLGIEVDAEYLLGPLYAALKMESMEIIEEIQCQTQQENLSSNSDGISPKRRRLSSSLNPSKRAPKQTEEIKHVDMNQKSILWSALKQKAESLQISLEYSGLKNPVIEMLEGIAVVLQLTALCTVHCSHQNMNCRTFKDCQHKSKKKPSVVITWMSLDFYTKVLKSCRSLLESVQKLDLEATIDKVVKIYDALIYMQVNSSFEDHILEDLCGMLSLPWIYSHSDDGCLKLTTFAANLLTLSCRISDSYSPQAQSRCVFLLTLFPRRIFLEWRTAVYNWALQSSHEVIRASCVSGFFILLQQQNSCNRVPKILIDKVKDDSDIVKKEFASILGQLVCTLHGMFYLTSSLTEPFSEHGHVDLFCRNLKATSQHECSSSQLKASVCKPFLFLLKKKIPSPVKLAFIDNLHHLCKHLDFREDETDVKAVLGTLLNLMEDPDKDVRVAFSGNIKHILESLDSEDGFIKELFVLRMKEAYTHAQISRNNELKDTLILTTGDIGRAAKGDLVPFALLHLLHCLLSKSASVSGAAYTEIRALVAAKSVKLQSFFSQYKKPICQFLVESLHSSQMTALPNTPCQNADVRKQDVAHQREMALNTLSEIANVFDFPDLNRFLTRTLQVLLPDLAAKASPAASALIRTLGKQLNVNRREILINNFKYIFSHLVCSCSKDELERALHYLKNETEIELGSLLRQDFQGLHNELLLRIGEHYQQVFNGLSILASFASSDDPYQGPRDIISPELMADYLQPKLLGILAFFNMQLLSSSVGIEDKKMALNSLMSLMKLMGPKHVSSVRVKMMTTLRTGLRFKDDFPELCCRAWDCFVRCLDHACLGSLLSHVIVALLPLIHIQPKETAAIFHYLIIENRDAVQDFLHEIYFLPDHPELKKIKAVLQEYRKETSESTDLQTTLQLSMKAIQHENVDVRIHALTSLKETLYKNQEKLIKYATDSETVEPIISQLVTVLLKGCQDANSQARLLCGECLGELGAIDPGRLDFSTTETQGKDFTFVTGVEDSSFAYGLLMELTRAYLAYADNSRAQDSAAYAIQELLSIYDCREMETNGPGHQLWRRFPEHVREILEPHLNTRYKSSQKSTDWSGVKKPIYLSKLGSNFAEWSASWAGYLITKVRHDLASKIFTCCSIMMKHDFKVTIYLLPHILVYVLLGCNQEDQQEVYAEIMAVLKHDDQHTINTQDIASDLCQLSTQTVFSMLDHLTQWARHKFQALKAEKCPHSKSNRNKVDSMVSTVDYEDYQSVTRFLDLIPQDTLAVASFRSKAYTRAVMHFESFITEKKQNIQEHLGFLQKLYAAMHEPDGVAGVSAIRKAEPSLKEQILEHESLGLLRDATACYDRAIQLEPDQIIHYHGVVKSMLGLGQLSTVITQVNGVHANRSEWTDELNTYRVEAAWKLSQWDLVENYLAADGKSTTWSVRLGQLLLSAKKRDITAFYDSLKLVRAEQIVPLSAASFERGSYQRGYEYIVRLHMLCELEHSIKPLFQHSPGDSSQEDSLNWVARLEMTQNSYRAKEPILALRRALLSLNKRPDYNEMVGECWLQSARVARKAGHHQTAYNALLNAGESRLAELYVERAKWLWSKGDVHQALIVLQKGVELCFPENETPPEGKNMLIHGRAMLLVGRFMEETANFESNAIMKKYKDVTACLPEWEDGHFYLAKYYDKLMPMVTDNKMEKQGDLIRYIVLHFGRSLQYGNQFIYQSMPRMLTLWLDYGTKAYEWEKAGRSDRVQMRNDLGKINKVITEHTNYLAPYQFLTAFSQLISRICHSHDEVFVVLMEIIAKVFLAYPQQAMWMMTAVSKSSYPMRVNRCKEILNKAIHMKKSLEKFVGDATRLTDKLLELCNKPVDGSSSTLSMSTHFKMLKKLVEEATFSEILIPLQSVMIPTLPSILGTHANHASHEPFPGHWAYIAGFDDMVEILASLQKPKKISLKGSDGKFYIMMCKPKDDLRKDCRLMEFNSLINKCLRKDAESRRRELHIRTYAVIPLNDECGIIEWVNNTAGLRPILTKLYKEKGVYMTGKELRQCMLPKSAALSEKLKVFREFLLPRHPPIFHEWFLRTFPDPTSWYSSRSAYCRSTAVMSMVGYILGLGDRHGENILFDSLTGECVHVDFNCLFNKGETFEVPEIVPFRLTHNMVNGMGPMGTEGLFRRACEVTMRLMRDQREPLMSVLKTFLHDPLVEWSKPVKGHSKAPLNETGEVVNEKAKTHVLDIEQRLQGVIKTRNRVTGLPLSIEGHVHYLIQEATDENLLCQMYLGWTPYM

SMILES | Ki (full-length ATR) [nM] | Synergy with Cisplatin [1]
Cc1ccncc1NC(=O)c1c(N)nn2cc3c(nc12)CCN(C1COC1)C3 [Compound I-20, 2-amino-N-(4-methylpyridin-3-yl)-7-(oxetan-3-yl)-5,6,7,8-tetrahydropyrazolo[1,5-a]pyrido[4,3-d]pyrimidine-3-carboxamide] | 10 to 1000 | ++ (Cisplatin sensitization value >0.02 μM but <0.2 μM)
Nc1nn2cc3c(nc2c1C(=O)Nc1cnccc1C1CC1)CCN(C1COC1)C3 [Compound I-21, 2-amino-N-(4-cyclopropylpyridin-3-yl)-7-(oxetan-3-yl)-5,6,7,8-tetrahydropyrazolo[1,5-a]pyrido[4,3-d]pyrimidine-3-carboxamide] | 10 to 1000 | ++ (Cisplatin sensitization value >0.02 μM but <0.2 μM)
Nc1nn2cc3c(nc2c1C(=O)Nc1cncc(F)c1C1CC1)CCN(C1COC1)C3 [Compound I-22, 2-amino-N-(4-cyclopropyl-5-fluoropyridin-3-yl)-7-(oxetan-3-yl)-5,6,7,8-tetrahydropyrazolo[1,5-a]pyrido[4,3-d]pyrimidine-3-carboxamide] | 10 to 1000 | ++ (Cisplatin sensitization value >0.02 μM but <0.2 μM)
COc1ccncc1NC(=O)c1c(N)nn2cc3c(nc12)CCN(C1COC1)C3 [Compound I-24, 2-amino-N-(4-methoxypyridin-3-yl)-7-(oxetan-3-yl)-5,6,7,8-tetrahydropyrazolo[1,5-a]pyrido[4,3-d]pyrimidine-3-carboxamide] | 10 to 1000 | ++ (Cisplatin sensitization value >0.02 μM but <0.2 μM)
COc1cc(Cl)ncc1NC(=O)c1c(N)nn2cc3c(nc12)CCN(C1COC1)C3 [Compound I-25, 2-amino-N-(6-chloro-4-methoxypyridin-3-yl)-7-(oxetan-3-yl)-5,6,7,8-tetrahydropyrazolo[1,5-a]pyrido[4,3-d]pyrimidine-3-carboxamide] | 10 to 1000 | ++ (Cisplatin sensitization value >0.02 μM but <0.2 μM)
Nc1nn2cc3c(nc2c1C(=O)Nc1cncnc1C1CC1)CCN(C1COC1)C3 [Compound I-26, 2-amino-N-(4-cyclopropylpyrimidin-5-yl)-7-(oxetan-3-yl)-5,6,7,8-tetrahydropyrazolo[1,5-a]pyrido[4,3-d]pyrimidine-3-carboxamide] | 1000 to 5000 | + (Cisplatin sensitization value >0.2 μM but <5 μM)
COc1ncncc1NC(=O)c1c(N)nn2cc3c(nc12)CCN(C1COC1)C3 [Compound I-27, 2-amino-N-(4-methoxypyrimidin-5-yl)-7-(oxetan-3-yl)-5,6,7,8-tetrahydropyrazolo[1,5-a]pyrido[4,3-d]pyrimidine-3-carboxamide] | 10 to 1000 | ++ (Cisplatin sensitization value >0.02 μM but <0.2 μM)
COCCN1CCc2nc3c(C(=O)Nc4cnccc4C4CC4)c(N)nn3cc2C1 [Compound I-28, 2-amino-N-(4-cyclopropylpyridin-3-yl)-7-(2-methoxyethyl)-5,6,7,8-tetrahydropyrazolo[1,5-a]pyrido[4,3-d]pyrimidine-3-carboxamide] | 10 to 1000 | ++ (Cisplatin sensitization value >0.02 μM but <0.2 μM)
CN1CCc2nc3c(C(=O)Nc4cnccc4OCC(F)(F)F)c(N)nn3cc2C1 [Compound I-30, 2-amino-7-methyl-N-(4-(2,2,2-trifluoroethoxy)pyridin-3-yl)-5,6,7,8-tetrahydropyrazolo[1,5-a]pyrido[4,3-d]pyrimidine-3-carboxamide] | 10 to 1000 | +++ (Cisplatin sensitization value of <0.02 μM)
COc1ccncc1NC(=O)c1c(N)nn2cc3c(nc12)C(C)(C)CNC3 [Compound I-31, 2-amino-N-(4-methoxypyridin-3-yl)-5,5-dimethyl-5,6,7,8-tetrahydropyrazolo[1,5-a]pyrido[4,3-d]pyrimidine-3-carboxamide] | 10 to 1000 | ++ (Cisplatin sensitization value >0.02 μM but <0.2 μM)
Cc1nsc(NC(=O)c2c(N)nn3cc4c(nc23)CCN(C2COC2)C4)c1C1CC1 [Compound I-33, 2-amino-N-(4-cyclopropyl-3-methylisothiazol-5-yl)-7-(oxetan-3-yl)-5,6,7,8-tetrahydropyrazolo[1,5-a]pyrido[4,3-d]pyrimidine-3-carboxamide] | 10 to 1000 | +++ (Cisplatin sensitization value of <0.02 μM)
